# Data from patent US6521623B1, “N,N'-disubstituted benzimidazolone derivatives with affinity at the serotonin and dopamine receptors” (Boehringer Ingelheim Pharma KG, priority 2000, dated 2003).
# Legend:
# 5-HT1A [1] = target: T1, 5-HT1A (Homo sapiens, UniProt P08908); test: 5HT1A Radioligand Receptor Binding Assay ([3H]-8-OH-DPAT, CHO cell membranes); design: expressed in transfected cells; host or cells: CHO cells; details: CHO membranes, human 5-HT1A
# T1 sequence (P08908 1-422): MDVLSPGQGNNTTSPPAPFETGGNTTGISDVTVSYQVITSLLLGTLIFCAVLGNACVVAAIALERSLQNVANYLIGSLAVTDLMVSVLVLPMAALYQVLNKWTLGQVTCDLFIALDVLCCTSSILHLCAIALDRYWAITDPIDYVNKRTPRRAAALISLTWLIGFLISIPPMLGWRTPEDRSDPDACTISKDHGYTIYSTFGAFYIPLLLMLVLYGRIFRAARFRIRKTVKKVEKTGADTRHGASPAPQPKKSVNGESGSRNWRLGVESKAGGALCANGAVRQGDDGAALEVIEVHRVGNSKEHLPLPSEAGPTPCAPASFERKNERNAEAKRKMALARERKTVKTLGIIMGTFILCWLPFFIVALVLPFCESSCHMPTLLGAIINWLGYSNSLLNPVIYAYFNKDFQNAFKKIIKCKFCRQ
# Method in brief: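 CHO-cell membranes expressing human 5-HT1A incubated with [3H]-8-OH-DPAT (0.6-0.7 nM) for 60 minutes at 27° C, filtered and scintillation counted; non-specific binding defined with 10^−5 M 5-HT. Compounds tested singly at 10^−7 M as % of control specific binding; IC50 from one-site nonlinear regression.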
# 5-HT1A [2] = target: T1, 5-HT1A; test: 5-HT1 Functional Assay (cAMP) in CHO/5-HT1A cells; assay type: cell-based; design: expressed in transfected cells; host or cells: CHO/5-HT1A cells
# Method: 5-HT1 Functional Assay (cAMP)
# CHO/5-HT1A cells were random seeded at a density of about 200,000/well in 24 well plates the day prior to the experiment. On the day of the experiment, cells were pretreated for 15 minutes at 37° C. with 500 μM isobutylmethylxantine (IBMX) dissolved in culture medium without serum. Wells were then divided in different groups in duplicate as follows: control, 10 μM FSK, 10 μM FSK+1 μM 5-HT as positive standard and 10 μM FSK+10 μM of the different compound under evaluation. Sample solutions were added and incubated for additional 15 minutes at 37° C. After incubation, the medium was aspirated and the reaction stopped by adding 200 μl of lysis buffer. Plates were shaken for 5 minutes, then the lysate was removed and samples were stored at 4° C. until the day of the assay. For the cAMP evaluation, samples were properly diluted and the cAMP content was measured by an enzyme immunoassay system.
structure (smiles),measurement,setting,value
CCNC(=O)OCCn1c(=O)n(CCN2CCN(c3cccc(C)c3C)CC2)c2ccccc21 [Compound 215],IC50,"5-HT1A [1]; [3H]-8-OH-DPAT, read-out: 5-HT1A Receptor Binding IC50",0.85 nM
same,inhibition at 0.1 µM,"5-HT1A [1]; compound 10^−7 M, singlicate, [3H]-8-OH-DPAT 0.6-0.7 nM",98%
same,inhibition at 10 µM,5-HT1A [2],83%
